Structures are written as SMILES.

Here are results for three molecules from ChEMBL document CHEMBL1152560, “Substituted 2-arylbenzothiazoles as kinase inhibitors: hit-to-lead optimization” (Bioorg Med Chem, 2009).

The target in assay [1] is Mitogen-activated protein kinase kinase kinase 8 (Homo sapiens) (UniProt P41279). Description: Residual activity of COT at 1 uM by microplate scintillation counting.
In assay [2] the target is Serine/threonine-protein kinase PLK3 (Homo sapiens) (UniProt Q9H4B4). Nature of the assay: Residual activity of PLK3 at 10 uM by microplate scintillation counting.
Serine/threonine-protein kinase PLK3 (Homo sapiens), sequence (Q9H4B4 whole entry, looked up): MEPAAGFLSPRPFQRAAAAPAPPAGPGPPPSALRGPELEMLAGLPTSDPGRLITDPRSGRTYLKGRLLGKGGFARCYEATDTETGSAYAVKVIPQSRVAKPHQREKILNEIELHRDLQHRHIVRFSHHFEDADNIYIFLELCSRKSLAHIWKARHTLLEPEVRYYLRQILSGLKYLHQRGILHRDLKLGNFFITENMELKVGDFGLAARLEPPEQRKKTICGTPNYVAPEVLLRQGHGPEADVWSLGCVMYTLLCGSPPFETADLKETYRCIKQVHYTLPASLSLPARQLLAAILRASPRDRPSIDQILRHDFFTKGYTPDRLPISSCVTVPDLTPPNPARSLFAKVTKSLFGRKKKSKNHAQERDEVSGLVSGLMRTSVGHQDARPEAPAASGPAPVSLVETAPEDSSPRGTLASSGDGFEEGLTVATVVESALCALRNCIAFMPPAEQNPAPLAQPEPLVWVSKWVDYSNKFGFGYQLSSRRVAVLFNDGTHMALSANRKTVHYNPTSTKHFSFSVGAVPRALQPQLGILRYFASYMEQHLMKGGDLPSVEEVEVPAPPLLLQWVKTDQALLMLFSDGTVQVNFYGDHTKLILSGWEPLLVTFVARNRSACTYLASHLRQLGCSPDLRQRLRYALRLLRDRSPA
A short description of assay [3]: Residual activity of PKA at 1 uM by microplate scintillation counting.
The target in assay [4] is Tyrosine-protein kinase Fyn (Homo sapiens) (UniProt P06241). Nature of the assay: Residual activity of FYN at 0.1 uM by microplate scintillation counting.
Tyrosine-protein kinase Fyn (Homo sapiens), sequence (P06241 2-537 limits assumed): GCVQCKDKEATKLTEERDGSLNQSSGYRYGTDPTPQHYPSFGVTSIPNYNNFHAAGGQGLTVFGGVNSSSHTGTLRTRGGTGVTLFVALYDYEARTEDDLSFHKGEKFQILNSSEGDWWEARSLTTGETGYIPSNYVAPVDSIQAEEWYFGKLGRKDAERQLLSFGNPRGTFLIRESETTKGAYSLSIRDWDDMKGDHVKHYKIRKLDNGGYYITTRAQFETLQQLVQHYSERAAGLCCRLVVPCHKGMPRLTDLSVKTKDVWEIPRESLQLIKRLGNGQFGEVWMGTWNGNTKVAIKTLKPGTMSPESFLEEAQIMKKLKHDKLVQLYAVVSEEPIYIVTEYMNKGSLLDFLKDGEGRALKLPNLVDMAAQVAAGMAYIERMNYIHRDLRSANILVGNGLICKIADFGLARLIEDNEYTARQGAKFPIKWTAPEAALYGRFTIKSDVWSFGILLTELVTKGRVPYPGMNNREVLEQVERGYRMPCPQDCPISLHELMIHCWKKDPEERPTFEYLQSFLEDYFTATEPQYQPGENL
For assay [5], the target named is Mitogen-activated protein kinase kinase kinase kinase 4 (Homo sapiens) (UniProt O95819). Description: Residual activity of MAP4K4 at 0.1 uM by microplate scintillation counting.
Mitogen-activated protein kinase kinase kinase kinase 4 (Homo sapiens), sequence (O95819 2-1239 limits assumed): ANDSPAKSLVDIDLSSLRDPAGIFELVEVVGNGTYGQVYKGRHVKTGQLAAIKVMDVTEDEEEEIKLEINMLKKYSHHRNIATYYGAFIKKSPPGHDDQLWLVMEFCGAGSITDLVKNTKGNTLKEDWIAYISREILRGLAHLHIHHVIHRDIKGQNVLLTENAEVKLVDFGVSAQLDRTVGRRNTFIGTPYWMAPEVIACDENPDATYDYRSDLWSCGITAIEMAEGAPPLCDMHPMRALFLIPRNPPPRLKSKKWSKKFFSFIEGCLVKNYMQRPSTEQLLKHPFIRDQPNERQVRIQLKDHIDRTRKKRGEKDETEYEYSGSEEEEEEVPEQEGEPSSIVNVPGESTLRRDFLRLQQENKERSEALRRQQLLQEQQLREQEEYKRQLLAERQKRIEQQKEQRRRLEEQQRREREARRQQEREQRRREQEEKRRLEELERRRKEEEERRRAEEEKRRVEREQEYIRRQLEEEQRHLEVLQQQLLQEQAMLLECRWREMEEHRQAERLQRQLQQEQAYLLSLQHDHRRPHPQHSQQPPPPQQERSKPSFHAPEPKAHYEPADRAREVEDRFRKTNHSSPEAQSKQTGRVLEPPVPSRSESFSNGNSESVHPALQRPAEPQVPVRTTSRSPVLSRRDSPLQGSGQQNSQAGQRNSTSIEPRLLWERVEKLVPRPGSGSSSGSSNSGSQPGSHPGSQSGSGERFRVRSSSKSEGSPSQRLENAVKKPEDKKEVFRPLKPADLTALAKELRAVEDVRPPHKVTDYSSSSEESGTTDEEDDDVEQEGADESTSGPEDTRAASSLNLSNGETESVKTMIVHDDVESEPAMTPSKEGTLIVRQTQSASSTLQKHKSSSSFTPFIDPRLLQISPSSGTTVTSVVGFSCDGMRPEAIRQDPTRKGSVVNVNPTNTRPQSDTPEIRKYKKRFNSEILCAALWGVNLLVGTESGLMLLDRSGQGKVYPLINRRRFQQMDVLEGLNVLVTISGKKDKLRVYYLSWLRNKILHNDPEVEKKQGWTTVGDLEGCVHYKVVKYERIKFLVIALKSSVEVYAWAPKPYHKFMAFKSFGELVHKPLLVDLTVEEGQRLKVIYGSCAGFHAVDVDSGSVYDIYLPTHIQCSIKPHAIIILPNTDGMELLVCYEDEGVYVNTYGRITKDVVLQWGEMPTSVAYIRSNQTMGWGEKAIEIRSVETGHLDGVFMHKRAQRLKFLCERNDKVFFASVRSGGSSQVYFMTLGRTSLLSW
For assay [6], the target named is MAP kinase-activated protein kinase 3 (Homo sapiens) (UniProt Q16644). Description: Residual activity of MAPKAPK3 at 0.1 uM by microplate scintillation counting.
MAP kinase-activated protein kinase 3 (Homo sapiens), sequence (Q16644 whole entry, looked up): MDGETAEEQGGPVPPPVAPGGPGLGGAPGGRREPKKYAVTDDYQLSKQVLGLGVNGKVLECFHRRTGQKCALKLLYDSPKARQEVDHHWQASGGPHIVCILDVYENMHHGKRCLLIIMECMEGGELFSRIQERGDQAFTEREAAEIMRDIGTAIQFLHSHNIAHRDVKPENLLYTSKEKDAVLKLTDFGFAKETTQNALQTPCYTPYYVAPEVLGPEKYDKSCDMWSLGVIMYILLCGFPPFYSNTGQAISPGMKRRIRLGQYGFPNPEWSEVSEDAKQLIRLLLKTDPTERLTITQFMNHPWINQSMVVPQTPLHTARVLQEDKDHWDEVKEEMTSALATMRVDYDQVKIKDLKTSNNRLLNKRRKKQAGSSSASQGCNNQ
Assay [7] concerns the target Serine/threonine-protein kinase PLK3 (Homo sapiens) (UniProt Q9H4B4). Description: Residual activity of PLK3 at 1 uM by microplate scintillation counting.
Assay [8] concerns the target T1, Serine/threonine-protein kinase D2 (Homo sapiens) (UniProt Q9BZL6).
T1 sequence (whole entry): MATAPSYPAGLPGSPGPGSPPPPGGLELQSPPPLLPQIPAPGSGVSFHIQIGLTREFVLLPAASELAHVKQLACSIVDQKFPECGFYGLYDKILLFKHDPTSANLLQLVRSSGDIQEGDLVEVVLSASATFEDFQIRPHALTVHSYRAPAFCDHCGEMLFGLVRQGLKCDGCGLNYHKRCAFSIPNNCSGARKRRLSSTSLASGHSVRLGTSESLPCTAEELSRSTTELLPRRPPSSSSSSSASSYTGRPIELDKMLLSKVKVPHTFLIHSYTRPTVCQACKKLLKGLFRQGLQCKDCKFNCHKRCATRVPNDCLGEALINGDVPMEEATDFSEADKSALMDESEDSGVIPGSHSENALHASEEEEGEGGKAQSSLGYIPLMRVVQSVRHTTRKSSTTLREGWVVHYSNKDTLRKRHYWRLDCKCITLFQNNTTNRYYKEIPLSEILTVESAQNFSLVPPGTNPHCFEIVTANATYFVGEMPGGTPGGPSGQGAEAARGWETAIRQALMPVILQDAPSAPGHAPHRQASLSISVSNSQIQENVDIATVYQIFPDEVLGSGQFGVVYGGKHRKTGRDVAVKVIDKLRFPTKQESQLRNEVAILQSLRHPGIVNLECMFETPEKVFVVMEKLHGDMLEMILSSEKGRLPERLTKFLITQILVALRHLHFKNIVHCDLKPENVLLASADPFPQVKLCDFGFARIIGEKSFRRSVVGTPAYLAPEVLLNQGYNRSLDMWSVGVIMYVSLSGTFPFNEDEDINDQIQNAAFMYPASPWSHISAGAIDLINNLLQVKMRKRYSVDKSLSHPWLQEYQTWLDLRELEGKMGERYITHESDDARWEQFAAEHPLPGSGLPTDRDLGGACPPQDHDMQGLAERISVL
Description: Residual activity of PRKD2 at 1 uM by microplate scintillation counting.

Assay [9] deals with Epidermal growth factor receptor (Homo sapiens), P00533 [L858R,T790M]. Nature of the assay: Residual activity of EGFR T790M/L858R mutant at 10 uM by microplate scintillation counting.
For assay [10], the target named is Tyrosine-protein kinase Fer (Homo sapiens) (UniProt P16591). Nature of the assay: Residual activity of FER at 10 uM by microplate scintillation counting.
The target of assay [11] is Tyrosine-protein kinase Fgr (Homo sapiens) (UniProt P09769). Nature of the assay: Residual activity of FGR at 10 uM by microplate scintillation counting.
Tyrosine-protein kinase Fgr (Homo sapiens), sequence (P09769 2-529 limits assumed): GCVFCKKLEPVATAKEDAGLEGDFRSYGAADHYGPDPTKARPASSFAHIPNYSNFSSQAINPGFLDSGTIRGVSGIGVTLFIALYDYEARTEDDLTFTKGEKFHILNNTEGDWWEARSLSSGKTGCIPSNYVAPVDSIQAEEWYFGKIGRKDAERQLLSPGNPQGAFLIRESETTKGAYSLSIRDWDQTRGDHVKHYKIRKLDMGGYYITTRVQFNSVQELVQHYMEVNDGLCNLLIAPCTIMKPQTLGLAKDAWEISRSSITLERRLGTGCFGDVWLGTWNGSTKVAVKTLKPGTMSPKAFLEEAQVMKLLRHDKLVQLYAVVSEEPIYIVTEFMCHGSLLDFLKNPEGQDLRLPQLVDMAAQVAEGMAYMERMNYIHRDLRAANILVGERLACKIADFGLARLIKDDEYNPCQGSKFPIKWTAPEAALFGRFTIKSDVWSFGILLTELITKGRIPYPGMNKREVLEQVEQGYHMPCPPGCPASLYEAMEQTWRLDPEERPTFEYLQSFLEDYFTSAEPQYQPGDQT
Assay [12] deals with T2, Aurora kinase A (Homo sapiens) (UniProt O14965).
T2 sequence (whole entry): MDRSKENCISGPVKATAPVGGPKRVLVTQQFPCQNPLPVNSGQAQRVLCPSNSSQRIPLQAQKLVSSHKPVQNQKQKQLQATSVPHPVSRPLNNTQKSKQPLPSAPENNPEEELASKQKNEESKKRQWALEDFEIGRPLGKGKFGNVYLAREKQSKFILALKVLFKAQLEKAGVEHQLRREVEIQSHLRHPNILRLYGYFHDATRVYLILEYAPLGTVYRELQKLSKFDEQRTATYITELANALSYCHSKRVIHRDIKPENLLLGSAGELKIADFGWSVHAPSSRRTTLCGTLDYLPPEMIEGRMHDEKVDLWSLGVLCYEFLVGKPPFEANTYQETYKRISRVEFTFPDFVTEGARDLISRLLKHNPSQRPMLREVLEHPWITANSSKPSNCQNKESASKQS
Nature of the assay: Residual activity of Aurora-A at 1 uM by microplate scintillation counting.

The target in assay [13] is T3, Serine/threonine-protein kinase Nek3 (Homo sapiens) (UniProt P51956).
T3 sequence (whole entry): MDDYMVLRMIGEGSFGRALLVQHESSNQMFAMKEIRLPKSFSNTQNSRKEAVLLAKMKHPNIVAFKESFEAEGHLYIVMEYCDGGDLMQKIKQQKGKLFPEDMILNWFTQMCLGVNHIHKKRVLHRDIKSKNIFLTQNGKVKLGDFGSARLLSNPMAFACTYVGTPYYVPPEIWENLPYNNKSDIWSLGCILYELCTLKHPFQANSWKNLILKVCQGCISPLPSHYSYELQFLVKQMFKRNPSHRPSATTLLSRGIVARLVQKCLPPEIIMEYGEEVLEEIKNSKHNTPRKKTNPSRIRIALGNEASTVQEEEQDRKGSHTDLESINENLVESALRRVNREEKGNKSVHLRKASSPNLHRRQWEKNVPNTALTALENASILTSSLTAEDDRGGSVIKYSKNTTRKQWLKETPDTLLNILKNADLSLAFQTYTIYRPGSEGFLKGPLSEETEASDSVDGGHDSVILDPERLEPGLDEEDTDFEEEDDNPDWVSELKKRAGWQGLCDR
Description: Residual activity of NEK3 at 10 uM by microplate scintillation counting.

Assay [14] has as its target CDK9/cyclin T1 (Homo sapiens) (UniProt O60563+P50750). Description: Residual activity of CDK9/Cyclin T at 0.1 uM by microplate scintillation counting. The format is protein-complex assay.
In assay [15] the target is Ribosomal protein S6 kinase beta-2 (Homo sapiens) (UniProt Q9UBS0). Description: Residual activity of S6Kbeta at 0.1 uM by microplate scintillation counting.
Ribosomal protein S6 kinase beta-2 (Homo sapiens), sequence (Q9UBS0 whole entry): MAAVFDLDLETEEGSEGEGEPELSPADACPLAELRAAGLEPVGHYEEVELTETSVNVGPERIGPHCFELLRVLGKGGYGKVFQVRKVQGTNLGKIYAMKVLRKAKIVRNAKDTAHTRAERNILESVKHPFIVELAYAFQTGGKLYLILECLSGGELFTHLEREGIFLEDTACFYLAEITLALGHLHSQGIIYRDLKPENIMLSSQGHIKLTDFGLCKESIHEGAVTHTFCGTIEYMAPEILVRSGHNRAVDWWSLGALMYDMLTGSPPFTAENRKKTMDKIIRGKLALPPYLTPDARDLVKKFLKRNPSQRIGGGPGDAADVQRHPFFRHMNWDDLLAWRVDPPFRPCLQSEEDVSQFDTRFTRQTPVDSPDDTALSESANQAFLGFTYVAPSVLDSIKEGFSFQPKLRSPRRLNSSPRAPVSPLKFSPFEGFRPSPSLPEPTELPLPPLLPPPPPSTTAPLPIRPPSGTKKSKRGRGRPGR
The target of assay [16] is Non-receptor tyrosine-protein kinase TYK2 (Homo sapiens) (UniProt P29597). Nature of the assay: Residual activity of TYK2 at 0.1 uM by microplate scintillation counting.

Mitogen-activated protein kinase kinase kinase 8 (Homo sapiens), sequence (P41279 whole entry): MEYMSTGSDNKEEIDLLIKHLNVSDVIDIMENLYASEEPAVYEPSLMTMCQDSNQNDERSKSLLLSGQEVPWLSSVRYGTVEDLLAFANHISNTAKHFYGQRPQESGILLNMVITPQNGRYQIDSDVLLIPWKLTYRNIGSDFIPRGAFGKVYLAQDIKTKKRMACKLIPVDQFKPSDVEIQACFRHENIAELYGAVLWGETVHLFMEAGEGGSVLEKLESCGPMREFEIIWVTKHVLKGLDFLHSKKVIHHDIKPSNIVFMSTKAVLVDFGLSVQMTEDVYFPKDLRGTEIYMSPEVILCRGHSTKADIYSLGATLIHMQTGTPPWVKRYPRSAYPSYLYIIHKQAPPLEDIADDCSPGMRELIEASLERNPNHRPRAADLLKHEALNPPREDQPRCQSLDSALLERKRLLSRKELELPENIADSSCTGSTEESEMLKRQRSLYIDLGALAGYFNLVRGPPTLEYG

On to `COc1cc2c(Oc3ccc(-c4nc5ccccc5s4)cc3)ncnc2cc1OCCCN1CCN(C)CC1`, for which the residual activity in assay [1] is -18%; in assay [2], 2%; in assay [3], 106%; in assay [4], 101%; in assay [5], 85%; in [6], 91%. The residual activity in assay [7] was determined as 100%; in [8], 82%; in [9], 167%; in assay [10], 79%; in [11] it was 82%; in assay [12], 22%. The residual activity was 145% in assay [13], 101% in [14], 42% in assay [15] and 90% in assay [16].

On to `COc1cc2c(Oc3ccc(-c4nc5ccccc5s4)cc3)ncnc2cc1OCCCN1CCCC1`, for which the residual activity in [1] was determined as 73%; in [2], 223%; in [3] it was 96%; in assay [4], 105%; in [5], 86%; in assay [6], 93%. Moreover, the residual activity came to 101% in assay [7]; 94% in assay [8]; 147% in assay [9]; 73% in assay [10]; 90% in [11]; 25% in assay [12]. Also, the residual activity in assay [13] amounted to 154%; in assay [14] it was 94%; in assay [15] it was 47%; in [16], 94%.

Take `COc1cc2c(Oc3ccc(-c4nc5ccccc5s4)cc3F)ncnc2cc1OCCCN1CCN(C)CC1`: the residual activity in assay [1] is 77%; in [2], 257%; in [3], 103%; in assay [4], 98%; in [5], 83%; in [6] it was 94%. For the same molecule, the residual activity is 94% in assay [7]; 90% in [8]; 70% in assay [9]; 16% in [10]; 24% in [11]; 28% in assay [12]. In addition, the residual activity in [13] is 132%; in [14], 91%; in [15], 55%; in assay [16] it was 102%.
